Test results reported in ChEMBL document CHEMBL4033685, “C21-steroidal pregnane sapogenins and their derivatives as anti-inflammatory agents” (Bioorg Med Chem, 2017).
The source made the active and inactive calls. The rule behind the calls is not given here.

Tests used:
Toll-like receptor 4 [1] = molecular target: T1, Toll-like receptor 4 (Homo sapiens, UniProt O00206); assay: Antagonist activity at TLR4 in human THP1 cells harboring human TRAF6 assessed as inhibition of LPS-stimulated IL-6 level at 10 uM by bead based immunoassay; assay type: cell-based
T1 sequence (O00206 whole entry): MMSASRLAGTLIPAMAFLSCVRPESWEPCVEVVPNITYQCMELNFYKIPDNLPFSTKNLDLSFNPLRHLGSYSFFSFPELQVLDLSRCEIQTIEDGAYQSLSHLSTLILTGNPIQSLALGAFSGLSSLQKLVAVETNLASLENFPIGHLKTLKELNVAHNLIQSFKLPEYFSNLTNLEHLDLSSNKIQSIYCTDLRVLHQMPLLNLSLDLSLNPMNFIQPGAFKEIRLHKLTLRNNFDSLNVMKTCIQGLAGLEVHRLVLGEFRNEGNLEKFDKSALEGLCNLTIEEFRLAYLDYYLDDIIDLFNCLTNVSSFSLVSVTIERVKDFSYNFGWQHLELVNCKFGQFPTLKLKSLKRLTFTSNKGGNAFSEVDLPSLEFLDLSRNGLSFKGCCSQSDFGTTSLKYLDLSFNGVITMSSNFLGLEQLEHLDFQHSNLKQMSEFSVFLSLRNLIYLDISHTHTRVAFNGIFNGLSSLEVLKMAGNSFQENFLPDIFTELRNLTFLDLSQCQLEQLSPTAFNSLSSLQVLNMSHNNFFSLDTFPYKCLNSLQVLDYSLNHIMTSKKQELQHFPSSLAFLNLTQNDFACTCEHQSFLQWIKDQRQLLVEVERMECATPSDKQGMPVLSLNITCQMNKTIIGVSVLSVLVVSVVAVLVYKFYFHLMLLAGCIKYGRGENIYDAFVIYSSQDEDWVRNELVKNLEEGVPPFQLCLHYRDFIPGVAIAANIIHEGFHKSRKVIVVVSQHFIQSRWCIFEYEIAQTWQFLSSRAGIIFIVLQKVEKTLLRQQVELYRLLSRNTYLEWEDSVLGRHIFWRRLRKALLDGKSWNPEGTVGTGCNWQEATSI

THP-1 [2] = assay: Downregulation of IkBalpha protein expression in human THP1 cells at 10 uM after 3 hrs by Western blot analysis; assay type: functional, cell-based
Toll-like receptor 4 [3] = molecular target: T1, Toll-like receptor 4; assay: Antagonist activity at TLR4 in human THP1 cells harboring human TRAF6 assessed as inhibition of LPS-stimulated TNFalpha level at 10 uM by bead based immunoassay; assay type: cell-based
THP-1 [4] = assay: Effect on RelB protein expression in human THP1 cells at 10 uM after 3 hrs by Western blot analysis; assay type: functional, cell-based
Toll-like receptor 4 [5] = molecular target: T1, Toll-like receptor 4; assay: Antagonist activity at TLR4 in human THP1 cells assessed as inhibition of LPS-stimulated IL-6 mRNA level at 10 uM after 16 hrs by RT-PCR method; assay type: cell-based
[6] = molecular target: Toll-like receptor 3 (Homo sapiens) (UniProt O15455); assay: Antagonist activity at TLR3 in human THP1 cells assessed as inhibition of poly IC-stimulated IL-1beta level at 10 uM by bead based immunoassay; assay type: cell-based
Toll-like receptor 3 (Homo sapiens), sequence (O15455 whole entry): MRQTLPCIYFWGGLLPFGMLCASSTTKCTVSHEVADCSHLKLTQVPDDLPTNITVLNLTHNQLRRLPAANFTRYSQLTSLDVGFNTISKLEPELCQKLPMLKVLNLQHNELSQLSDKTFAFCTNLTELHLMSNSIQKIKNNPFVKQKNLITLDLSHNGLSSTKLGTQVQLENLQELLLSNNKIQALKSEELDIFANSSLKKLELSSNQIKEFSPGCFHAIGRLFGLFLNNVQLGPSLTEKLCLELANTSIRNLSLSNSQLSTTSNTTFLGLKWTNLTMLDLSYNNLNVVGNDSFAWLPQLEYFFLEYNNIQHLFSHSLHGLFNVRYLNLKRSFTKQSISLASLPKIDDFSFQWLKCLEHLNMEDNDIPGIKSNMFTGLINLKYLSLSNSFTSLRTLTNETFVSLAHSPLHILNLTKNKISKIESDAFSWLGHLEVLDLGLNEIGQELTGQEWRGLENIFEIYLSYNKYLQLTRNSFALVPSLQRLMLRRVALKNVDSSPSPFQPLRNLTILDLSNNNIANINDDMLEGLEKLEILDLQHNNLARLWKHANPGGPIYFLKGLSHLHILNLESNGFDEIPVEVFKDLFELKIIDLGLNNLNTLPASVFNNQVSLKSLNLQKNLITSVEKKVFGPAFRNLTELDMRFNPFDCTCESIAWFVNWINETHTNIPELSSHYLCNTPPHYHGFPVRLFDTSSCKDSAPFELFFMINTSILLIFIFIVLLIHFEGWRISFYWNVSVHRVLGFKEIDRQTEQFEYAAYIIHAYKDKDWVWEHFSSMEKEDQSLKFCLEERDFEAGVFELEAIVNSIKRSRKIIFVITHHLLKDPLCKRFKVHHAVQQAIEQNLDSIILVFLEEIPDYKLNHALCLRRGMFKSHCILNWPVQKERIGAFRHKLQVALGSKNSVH

[7] = molecular target: Transcription factor p65 (Homo sapiens) (UniProt Q04206); assay: Inhibition of TNFalpha-stimulated NF-kB p65 phosphorylation (unknown origin) expressed in human AD293 cells at 10 uM after 3 hrs by Western blot analysis; assay type: cell-based
Transcription factor p65 (Homo sapiens), sequence (Q04206 whole entry): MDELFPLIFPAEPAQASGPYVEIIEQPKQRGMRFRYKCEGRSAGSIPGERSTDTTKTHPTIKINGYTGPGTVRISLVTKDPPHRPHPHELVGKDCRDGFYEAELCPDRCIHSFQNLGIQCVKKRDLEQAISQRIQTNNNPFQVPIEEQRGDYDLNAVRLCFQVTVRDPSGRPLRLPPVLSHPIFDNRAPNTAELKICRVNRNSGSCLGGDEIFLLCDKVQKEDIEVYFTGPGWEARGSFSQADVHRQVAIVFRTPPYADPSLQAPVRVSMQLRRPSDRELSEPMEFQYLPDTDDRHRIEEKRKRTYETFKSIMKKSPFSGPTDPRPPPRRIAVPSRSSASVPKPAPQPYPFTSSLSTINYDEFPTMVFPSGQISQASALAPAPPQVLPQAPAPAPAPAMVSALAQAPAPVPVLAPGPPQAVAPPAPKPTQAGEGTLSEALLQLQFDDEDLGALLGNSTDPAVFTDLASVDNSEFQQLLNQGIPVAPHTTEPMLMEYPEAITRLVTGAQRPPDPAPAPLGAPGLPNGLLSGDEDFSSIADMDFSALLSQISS

THP-1 [8] = assay: Upregulation of IKKalpha protein expression in LPS-stimulated human THP1 cells at 10 uM after 3 hrs by Western blot analysis; assay type: functional, cell-based
Toll-like receptor 4 [9] = molecular target: T1, Toll-like receptor 4; assay: Antagonist activity at TLR4 (unknown origin) expressed in human AD293 cells assessed as inhibition of LPS/ATP-stimulated TLR4/NF-kB signaling pathway after 16 hrs by luciferase reporter gene assay; assay type: cell-based
Toll-like receptor 4 [10] = molecular target: T1, Toll-like receptor 4; assay: Antagonist activity at TLR4 in human THP1 cells assessed as increase in LPS-stimulated NFkappaB p65 phosphorylation at 10 uM after 3 hrs by Western blot analysis; assay type: cell-based
AD293 [11] = assay: Upregulation of IKKalpha protein expression in human AD293 cells at 10 uM after 3 hrs by Western blot analysis; assay type: functional, cell-based
Toll-like receptor 4 [12] = molecular target: T1, Toll-like receptor 4; assay: Antagonist activity at TLR4 in human THP1 cells assessed as inhibition of LPS-stimulated TNFalpha level at 10 uM by bead based immunoassay; assay type: cell-based
AD293 [13] = assay: Cytotoxicity against human AD293 cells assessed as reduction in cell viability after 24 hrs by methylene blue dye based spectrophotometric method; conditions: ad293, 24 h
[14] = molecular target: Transcription factor p65 (Homo sapiens) (UniProt Q04206); assay: Inhibition of TNFalpha-stimulated NF-kB p65 activation (unknown origin) expressed in human AD293 cells assessed as nuclear translocation of p65 at 10 uM after 3 hrs by confocal microscopic method; assay type: cell-based
[15] = molecular target: Toll-like receptor 3 (Homo sapiens) (UniProt O15455); assay: Antagonist activity at TLR3 in human THP1 cells assessed as inhibition of poly IC-stimulated TNFalpha level at 10 uM by bead based immunoassay; assay type: cell-based
[16] = molecular target: Toll-like receptor 2 (Homo sapiens) (UniProt O60603); assay: Antagonist activity at TLR2 in human THP1 cells assessed as inhibition of PGN-stimulated RANTES mRNA level at 10 uM after 16 hrs by RT-PCR method; assay type: cell-based
Toll-like receptor 2 (Homo sapiens), sequence (O60603 whole entry): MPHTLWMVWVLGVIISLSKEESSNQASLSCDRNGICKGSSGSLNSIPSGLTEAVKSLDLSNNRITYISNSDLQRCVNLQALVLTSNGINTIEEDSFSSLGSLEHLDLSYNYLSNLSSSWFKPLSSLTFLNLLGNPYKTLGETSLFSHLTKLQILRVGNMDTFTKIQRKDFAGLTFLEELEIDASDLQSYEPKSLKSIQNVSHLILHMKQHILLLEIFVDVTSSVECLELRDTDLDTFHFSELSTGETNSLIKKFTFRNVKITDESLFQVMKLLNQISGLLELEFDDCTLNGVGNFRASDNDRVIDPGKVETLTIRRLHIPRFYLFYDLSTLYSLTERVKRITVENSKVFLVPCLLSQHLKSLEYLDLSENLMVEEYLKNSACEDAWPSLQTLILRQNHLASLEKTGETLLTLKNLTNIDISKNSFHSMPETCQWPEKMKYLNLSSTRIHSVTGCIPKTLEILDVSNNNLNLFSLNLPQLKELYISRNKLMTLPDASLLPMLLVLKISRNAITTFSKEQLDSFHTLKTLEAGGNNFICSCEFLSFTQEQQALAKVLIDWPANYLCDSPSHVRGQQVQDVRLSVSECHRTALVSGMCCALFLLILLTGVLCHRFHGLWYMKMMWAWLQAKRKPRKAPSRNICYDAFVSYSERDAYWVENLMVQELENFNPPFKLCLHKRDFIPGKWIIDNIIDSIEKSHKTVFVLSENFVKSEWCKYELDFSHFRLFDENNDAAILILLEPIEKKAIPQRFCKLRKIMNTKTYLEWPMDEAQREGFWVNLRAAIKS

Toll-like receptor 4 [17] = molecular target: T1, Toll-like receptor 4; assay: Antagonist activity at TLR4 in human THP1 cells assessed as inhibition of LPS-stimulated NF-kB non-canonical signaling pathway by measuring decrease in RelB expression at 10 uM after 3 hrs by Western blot analysis; assay type: cell-based
[18] = molecular target: Transcription factor p65 (Homo sapiens) (UniProt Q04206); assay: Upregulation of NF-kB p65 phosphorylation (unknown origin) expressed in human AD293 cells at 10 uM after 3 hrs by Western blot analysis; assay type: cell-based
Toll-like receptor 4 [19] = molecular target: T1, Toll-like receptor 4; assay: Antagonist activity at TLR4 in human THP1 cells assessed as inhibition of LPS-stimulated RANTES mRNA level at 10 uM after 16 hrs by RT-PCR method; assay type: cell-based
[20] = molecular target: Toll-like receptor 3 (Homo sapiens) (UniProt O15455); assay: Antagonist activity at TLR3 in human THP1 cells assessed as inhibition of poly IC-stimulated IL-6 mRNA level at 10 uM after 16 hrs by RT-PCR method; assay type: cell-based
[21] = molecular target: Toll-like receptor 2 (Homo sapiens) (UniProt O60603); assay: Antagonist activity at TLR2 in human THP1 cells assessed as inhibition of PGN-stimulated IL-1beta level at 10 uM by bead based immunoassay; assay type: cell-based
[22] = molecular target: Toll-like receptor 3 (Homo sapiens) (UniProt O15455); assay: Antagonist activity at TLR3 in human THP1 cells assessed as inhibition of poly IC-stimulated RANTES mRNA level at 10 uM after 16 hrs by RT-PCR method; assay type: cell-based
Toll-like receptor 4 [23] = molecular target: T1, Toll-like receptor 4; assay: Antagonist activity at TLR4 in human THP1 cells harboring human TRAF6 assessed as inhibition of LPS-stimulated IL-1beta level at 10 uM by bead based immunoassay; assay type: cell-based
THP-1 [24] = assay: Upregulation of IKKalpha protein expression in human THP1 cells at 10 uM after 3 hrs by Western blot analysis; assay type: functional, cell-based
[25] = molecular target: T2, NF-kappa-B inhibitor alpha (Homo sapiens) (UniProt P25963); assay: Inhibition of TNFalpha-stimulated IkBalpha phosphorylation in human AD293 cells at 10 uM after 3 hrs by Western blot analysis; assay type: cell-based
T2 sequence (whole entry): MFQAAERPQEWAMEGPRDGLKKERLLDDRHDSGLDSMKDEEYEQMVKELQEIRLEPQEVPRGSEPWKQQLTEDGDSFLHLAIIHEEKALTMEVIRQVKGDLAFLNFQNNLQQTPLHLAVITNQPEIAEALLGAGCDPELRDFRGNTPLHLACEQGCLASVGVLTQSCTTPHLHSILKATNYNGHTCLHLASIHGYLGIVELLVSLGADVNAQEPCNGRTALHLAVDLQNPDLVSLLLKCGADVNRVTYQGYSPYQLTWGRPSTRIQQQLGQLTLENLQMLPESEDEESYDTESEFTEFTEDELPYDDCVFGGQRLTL

[26] = molecular target: Toll-like receptor 2 (Homo sapiens) (UniProt O60603); assay: Antagonist activity at TLR2 in human THP1 cells assessed as inhibition of PGN-stimulated IL-6 mRNA level at 10 uM after 16 hrs by RT-PCR method; assay type: cell-based
AD293 [27] = assay: Upregulation of IKKalpha protein expression in TNFalpha-stimulated human AD293 cells at 10 uM after 3 hrs by Western blot analysis; assay type: functional, cell-based
AD293 [28] = assay: Effect on IkBalpha protein expression in TNFalpha-stimulated human AD293 cells at 10 uM after 3 hrs by Western blot analysis; assay type: functional, cell-based
Homo sapiens = species on record: Homo sapiens; assay: Inhibition of TNFalpha-stimulated NF-kB signaling pathway (unknown origin) expressed in human AD293 cells after 4 hrs by luciferase reporter gene assay; assay type: cell-based
Toll-like receptor 4 [29] = molecular target: T1, Toll-like receptor 4; assay: Antagonist activity at TLR4 in human THP1 cells assessed as inhibition of LPS-stimulated NF-kB canonical signaling pathway by measuring decrease in IkBalpha phosphorylation at 10 uM after 3 hrs by Western blot analysis; assay type: cell-based
Toll-like receptor 4 [30] = molecular target: T1, Toll-like receptor 4; assay: Antagonist activity at TLR4 in human THP1 cells assessed as inhibition of LPS-stimulated IL-6 level at 10 uM by bead based immunoassay; assay type: cell-based
Toll-like receptor 4 [31] = molecular target: T1, Toll-like receptor 4; assay: Antagonist activity at TLR4 in human THP1 cells assessed as inhibition of LPS-stimulated IL-1beta level at 10 uM by bead based immunoassay; assay type: cell-based
THP-1 [32] = assay: Downregulation of IkBalpha protein expression in LPS-stimulated human THP1 cells at 10 uM after 3 hrs by Western blot analysis; assay type: functional, cell-based
[33] = molecular target: Toll-like receptor 2 (Homo sapiens) (UniProt O60603); assay: Antagonist activity at TLR2 in human THP1 cells assessed as inhibition of PGN-stimulated TNFalpha level at 10 uM by bead based immunoassay; assay type: cell-based

`C[C@@H](OC(=O)c1ccccc1O)[C@]1(O)CC[C@@]2(O)[C@]1(C)[C@H](OC(=O)/C=C/c1ccccc1)C[C@@H]1[C@@]3(C)CC[C@H](O)CC3=CC[C@]12O` was tested, and the inhibition (Toll-like receptor 4 [1]) was “inactive”, the Activity (THP-1 [2]) was “Active” and the inhibition (Toll-like receptor 4 [3]) was “inactive”. For the same compound, the Activity (THP-1 [4]) was “Active”, the inhibition (Toll-like receptor 4 [5]) was “Active” and the inhibition [6] was “Active”. For the same compound, the inhibition [7] was “inactive”, the Activity (THP-1 [8]) was “Active” and the EC50 (Toll-like receptor 4 [9]) was 4.9 µM. For the same compound, the inhibition (Toll-like receptor 4 [10]) was “inactive”, the Activity (AD293 [11]) was “Active” and the inhibition (Toll-like receptor 4 [12]) was “Active”. For the same compound, the CC10 (AD293 [13]) was greater than 10 µM, the inhibition [14] was “inactive” and the inhibition [15] was “Active”. The inhibition [16] was “Active”, the inhibition (Toll-like receptor 4 [17]) was “Active” and the Activity [18] was “Active”. For the same compound, the inhibition (Toll-like receptor 4 [19]) was “Active”, the inhibition [20] was “Active” and the inhibition [21] was “Active”. The inhibition [22] was “Active”, the inhibition (Toll-like receptor 4 [23]) was “inactive” and the Activity (THP-1 [24]) was “Active”. For the same compound, the inhibition [25] was “inactive”, the inhibition [26] was “Active” and the Activity (AD293 [27]) was “Active”. The Activity (AD293 [28]) was “inactive”, the EC10 (Homo sapiens) was greater than 10 µM and the inhibition (Toll-like receptor 4 [29]) was “inactive”. For the same compound, the inhibition (Toll-like receptor 4 [30]) was “Active”, the inhibition (Toll-like receptor 4 [31]) was “Active” and the Activity (THP-1 [32]) was “Active”. For the same compound, the inhibition [33] was “Active”.
